# pIC50: −log10 of the molar value.
# Tests used:
# mice sarcoma S180 = test: Growth inhibition of S180 sarcoma in mice; type: in vivo
# Source text: (§1) Test samples: example compounds 18, 24, 25, 26 and 27
# (§2) Test animals: Kunming kinds of healthy mice (19-21 g), 10 mice (5 male and 5 female)/group, from Beijing Institute of Military Medical Sciences Animal Center.
# (§3) Tumor strains: mice sarcoma S180 for ascites passaged from Beijing Academy of Military Medical Institute of Pharmacology.
# (§4) Xenografts cultured S180 tumor cells were implanted subcutaneously into the flank region of mice and tumors were allowed to grow to the desired average size of 100 mg. The mice were randomized into control and treatment groups with 10 mice per group. The control group was injected with the vehicle used to dissolve the drug. Other groups received the test compounds (example compound 18, 24, 25, 26 and 27) and positive group, cyclophosphamide (CTX) and 5-fluorouracil (5-FU) at the dose and schedule as indicated in Table VI. Injections were I.V. via the tail vein.
# [1] = Body weight of mice in the S180 sarcoma study
# Source text: as §1, §2, §3, §4
# [2] = tested on: human colorectal cancer cell line HT29; test: In vitro anti-cancer cell experiment (MTT), HT29; type: cell-based; conditions: for IC50 (50% inhibition of cell viability, MTT): HT29, P<0.05
# Procedure: (§5) a. Cell lines: Human pancreatic cancer cell line Panc-1, human colorectal cancer cell line HT29 and human lung cancer cell line NCI-H460; the medium: s DMEM (Gibco BRL), containing 10% fetal calf serum (Gibco BRL) and 2 mM L-glutamine (Gibco BRL).
# (§6) b. Test samples: example compounds 3, 18, 25 and 27.
# (§7) The samples were dissolved in dimethyl sulfoxide (DMSO, Sigma, United States) and medium was added to the final concentration of 0.5%. Cisplatin was as positive control of (CDDP, purity 96%, from Kunming Institute of Precious Metals).
# (§8) c. Method: cells were digested with trypsin and dispersed into single cells in the medium containing penicillin (25 U/ml) and streptomycin (25 μg/ml). The cells were seeded in 96-well culture plates (Corning Incorporated), at 37° C., in a humidified atmosphere with 5% CO2 present for 24 hours. The culture medium was removed, […] test compounds were added, cultured for 48 hours. Culture medium was removed and […] (MTT, USA Sigma products) was added. The result was assayed by SK601-based microplate reader (Japan Seikagaku company's products), 570 nm/630 nm optical density (OD).
# (§9) Calculation of cell viability: (Experimental group OD/control OD)×100%; Positive control CDDP was treated in the same way.
# [3] = tested on: Human pancreatic cancer cell line Panc-1; test: In vitro anti-cancer cell experiment (MTT), Panc-1; type: cell-based
# Procedure: as §5, §6, §7, §8, §9
# [4] = tested on: human lung cancer cell line NCI-H460; test: In vitro anti-cancer cell experiment (MTT), NCI-H460; type: cell-based; conditions: NCI-H460, P<0.05
# Procedure: as §5, §6, §7, §8, §9
# [5] = Chronic toxicity, 30 days, mice
# Procedure: Animals were given an injection in the tail vein with approximately 100 μl volume of compound formulation or vehicle formulation. Mice body weights were measured daily along with daily observation for 30 days.
# (1) The general behavior, body weight and organ weight of animal.
# (2) Blood test: white blood cells (WB), red blood cells (RB), hemoglobin (Hb), alanine aminotransferase (ALT), aspartate aminotransferase (AST), alkaline phosphatase (ALP), serum uric acid (UA), blood urea (UREA) and creatinine (Cr).
# (3) Pathological examination: heart, liver, spleen, lung and kidney.
# [6] = S180 mice, I.V. tail vein, 10 mg/kg
# [7] = S180 mice, 24 one dose, 25 three doses, 26 three doses, 27 one dose
# [8] = S180 mice, I.V. tail vein, 15 mg/kg
# [9] = S180 mice, I.V. tail vein, 1 mg/kg
# [10] = S180 mice, I.V. tail vein, 2 mg/kg
# [11] = S180 mice, I.V. tail vein, 4 mg/kg
# [12] = S180 mice, I.V. tail vein, 8 mg/kg
# [13] = S180 mice, I.V. tail vein, 12 mg/kg
# [14] = mice, tail vein, 2, 4 and 8 mg/kg, 30 days, vs control group
# [15] = S180 mice, I.V. tail vein, 5 mg/kg
# [16] = S180 mice, I.V. tail vein, 25 mg/kg
molecule,measurement,setting,value
"COC(=O)/C(C)=C\CC12OC(C)(C)C3C[C@H](C=C4C(=O)c5c(OC6O[C@H](CO)[C@@H](O)[C@@H](O)[C@H]6O)c6c(c(CC=C(C)C)c5OC431)OC(C)(CCC=C(C)C)C=C6)C2=O (stereo partly drawn) [Example 24, Methyl-6-O-D-allosyl gambogate]",Inhibition rate (%),mice sarcoma S180; [6],61.0%
same,Tumor weight,mice sarcoma S180; [6],0.94 ± 0.26 g
same,"anti-tumor efficacy (in vivo), statistical significance",mice sarcoma S180; [7],statistically significant
same,body weight/g After ad.,"[1]; mouse, in vivo, iv, 10 mg/kg",19.77 ± 1.88 g
same,body weight/g Before ad.,"[1]; mouse, in vivo, iv, 10 mg/kg",21.67 ± 1.26 g
same,body weight/g Without tumor,"[1]; mouse, in vivo, iv, 10 mg/kg",18.89 ± 1.45 g
"O=c1[nH]cc(F)c(=O)[nH]1 [Example 5-FU, 5-fluorouracil, reference compound]",pIC50,"[2]; Homo sapiens, HT-29, HT29, 48 hours, MTT, second of two HT29 columns",4.03
same,pIC50,"[3]; Homo sapiens, Panc-1, 48 hours, MTT",3.71
same,Inhibition rate (%),mice sarcoma S180; [8],43.2%
same,Tumor weight,mice sarcoma S180; [8],1.37 ± .033 g
same,body weight/g After ad.,"[1]; mouse, in vivo, iv, 15 mg/kg",28.66 ± 2.89 g
same,body weight/g Before ad.,"[1]; mouse, in vivo, iv, 15 mg/kg",23.07 ± 1.75 g
same,body weight/g Without tumor,"[1]; mouse, in vivo, iv, 15 mg/kg",27.19 ± 2.88 g
"9,10-Dihydro-10-(N-methyl-1-naphthoylamino) gambogyl (N-methyl)-1-naphthoylamine [Example 25]","IC50 (50% inhibition of cell viability, MTT)",[2],3.75 µg/mL
same,Inhibition rate (%),mice sarcoma S180; [9],44.6%
same,Tumor weight,mice sarcoma S180; [9],1.34 ± 0.47 g
same,Inhibition rate (%),mice sarcoma S180; [10],58.3%
same,Tumor weight,mice sarcoma S180; [10],1.00 ± 0.34 g
same,Inhibition rate (%),mice sarcoma S180; [11],65.2%
same,Tumor weight,mice sarcoma S180; [11],0.84 ± 0.35 g
same,"anti-tumor efficacy (in vivo), statistical significance",mice sarcoma S180; [7],statistically significant
same,body weight/g After ad.,"[1]; mouse, in vivo, iv, 1 mg/kg",24.75 ± 2.56 g
same,body weight/g Before ad.,"[1]; mouse, in vivo, iv, 1 mg/kg",22.59 ± 1.36 g
same,body weight/g Without tumor,"[1]; mouse, in vivo, iv, 1 mg/kg",23.27 ± 2.16 g
same,body weight/g After ad.,"[1]; mouse, in vivo, iv, 2 mg/kg",22.75 ± 3.51 g
same,body weight/g Before ad.,"[1]; mouse, in vivo, iv, 2 mg/kg",22.36 ± 1.30 g
same,body weight/g Without tumor,"[1]; mouse, in vivo, iv, 2 mg/kg",21.69 ± 3.13 g
same,body weight/g After ad.,"[1]; mouse, in vivo, iv, 4 mg/kg",21.47 ± 3.69 g
same,body weight/g Before ad.,"[1]; mouse, in vivo, iv, 4 mg/kg",22.38 ± 1.80 g
same,body weight/g Without tumor,"[1]; mouse, in vivo, iv, 4 mg/kg",20.77 ± 3.37 g
"CC(C)=CCCC1(C)C=Cc2c(c(CC=C(C)C)c3c(c2OC(=O)c2ccc(OC4O[C@H](CO)[C@@H](O)[C@@H](O)[C@H]4O)cc2)C(=O)C2=C[C@H]4CC5C(C)(C)OC(C/C=C(/C)C(=O)N(C)Cc6cccc7ccccc67)(C4=O)C25O3)O1 (stereo partly drawn) [Example 27, 6-(4-O-D-Allosylbenzoyl) gambogyl (N-methyl-1-naphthalene) methylamine]","IC50 (50% inhibition of cell viability, MTT)",[2],1.19 µg/mL
same,"anti-tumor efficacy (in vivo), statistical significance","mice sarcoma S180; mouse, in vivo",statistically significant
same,Inhibition rate (%),"mice sarcoma S180; mouse, in vivo, iv, 25 mg/kg",32.5%
same,Tumor weight,"mice sarcoma S180; mouse, in vivo, iv, 25 mg/kg",1.63 ± 0.47 g
same,Inhibition rate (%),"mice sarcoma S180; mouse, in vivo, iv, 30 mg/kg",37.0%
same,Tumor weight,"mice sarcoma S180; mouse, in vivo, iv, 30 mg/kg",1.52 ± 0.30 g
same,body weight/g After ad.,"[1]; mouse, in vivo, iv, 25 mg/kg",20.83 ± 1.36 g
same,body weight/g Before ad.,"[1]; mouse, in vivo, iv, 25 mg/kg",20.90 ± 1.06 g
same,body weight/g Without tumor,"[1]; mouse, in vivo, iv, 25 mg/kg",19.00 ± 1.39 g
same,body weight/g After ad.,"[1]; mouse, in vivo, iv, 30 mg/kg",20.22 ± 2.11 g
same,body weight/g Before ad.,"[1]; mouse, in vivo, iv, 30 mg/kg",19.07 ± 1.40 g
same,body weight/g Without tumor,"[1]; mouse, in vivo, iv, 30 mg/kg",18.67 ± 2.08 g
"CC(C)=CCCC1(C)C=Cc2c(O)c3c(c(CC=C(C)C)c2O1)OC12C(=C[C@H]4CC1C(C)(C)OC2(C/C=C(/C)C(=O)OCCO)C4=O)C3=O (some centres unmarked) [Example 3, Ethylene Glycol Gambogate]",IC50 (the compound concentration producing 50% inhibition of colony formation) on NCI-H460,[4],6.18 µg/mL
same,IC50 (the compound concentration producing 50% inhibition of colony formation) on Panc-1,"[3]; Panc-1, P<0.05",23.4 µg/mL
"COC(=O)/C(C)=C\CC12OC(C)(C)C3C[C@H](C=C4C(=O)c5c(OC(=O)c6ccc(OC7O[C@H](CO)[C@@H](O)[C@@H](O)[C@H]7O)cc6)c6c(c(CC=C(C)C)c5OC431)OC(C)(CCC=C(C)C)C=C6)C2=O (stereo partly drawn) [Example 26, Methyl-6-(4-O-D-allosyl)benzoyl gambogate]",Inhibition rate (%),mice sarcoma S180; [11],53.7%
same,Tumor weight,mice sarcoma S180; [11],1.12 ± 0.40 g
same,Inhibition rate (%),mice sarcoma S180; [12],60.2%
same,Tumor weight,mice sarcoma S180; [12],0.96 ± 0.32 g
same,Inhibition rate (%),mice sarcoma S180; [13],69.3%
same,Tumor weight,mice sarcoma S180; [13],0.74 ± 0.11 g
same,"anti-tumor efficacy (in vivo), statistical significance",mice sarcoma S180; [7],statistically significant
same,body weight/g After ad.,"[1]; mouse, in vivo, iv, 4 mg/kg",23.71 ± 3.85 g
same,body weight/g Before ad.,"[1]; mouse, in vivo, iv, 4 mg/kg",25.89 ± 2.62 g
same,body weight/g Without tumor,"[1]; mouse, in vivo, iv, 4 mg/kg",22.54 ± 3.42 g
same,body weight/g After ad.,"[1]; mouse, in vivo, iv, 8 mg/kg",21.42 ± 0.88 g
same,body weight/g Before ad.,"[1]; mouse, in vivo, iv, 8 mg/kg",24.41 ± 2.28 g
same,body weight/g Without tumor,"[1]; mouse, in vivo, iv, 8 mg/kg",20.56 ± 0.54 g
same,body weight/g After ad.,"[1]; mouse, in vivo, iv, 12 mg/kg",26.71 ± 5.56 g
same,body weight/g Before ad.,"[1]; mouse, in vivo, iv, 12 mg/kg",25.58 ± 2.48 g
same,body weight/g Without tumor,"[1]; mouse, in vivo, iv, 12 mg/kg",26.07 ± 5.40 g
same,alanine aminotransferase (ALT),"[5]; high dose group, recovery to normal level",slightly incretion
same,Pathological examination: heart,[5]; [14],no abnormal of heart tissue
same,Pathological examination: liver,[5]; [14],no abnormal tissue in rat liver slices
same,Pathological examination: lung,[5]; [14],no abnormal tissue in rat lung slices
same,Pathological examination: renal,[5]; [14],no abnormal tissue in rat renal slices
same,Pathological examination: spleen,[5]; [14],no abnormal tissue in rat spleen slices
same,"toxic pathological changes of the heart, liver, spleen, lung and kidney","[5]; three dose mice groups, continuous administration for 30 days",no toxic pathological changes
"CCCCCN(CCCCC)C(=O)/C(C)=C\CC12OC(C)(C)C3C[C@H](C=C4C(=O)c5c(O)c6c(c(CC=C(C)C)c5OC431)OC(C)(CCC=C(C)C)C=C6)C2=O (some centres unmarked) [Example 18, Gambogyl Dipentylamine]",IC50 (the compound concentration producing 50% inhibition of colony formation) on NCI-H460,[4],4.73 µg/mL
same,Inhibition rate (%),mice sarcoma S180; [15],40.3%
same,Tumor weight,mice sarcoma S180; [15],1.44 ± 0.39 g
same,Inhibition rate (%),mice sarcoma S180; [6],52.5%
same,Tumor weight,mice sarcoma S180; [6],1.14 ± 0.42 g
same,body weight/g After ad.,"[1]; mouse, in vivo, iv, 5 mg/kg",27.91 ± 4.08 g
same,body weight/g Before ad.,"[1]; mouse, in vivo, iv, 5 mg/kg",22.80 ± 1.73 g
same,body weight/g Without tumor,"[1]; mouse, in vivo, iv, 5 mg/kg",26.49 ± 4.62 g
same,body weight/g After ad.,"[1]; mouse, in vivo, iv, 10 mg/kg",26.08 ± 2.8 g
same,body weight/g Before ad.,"[1]; mouse, in vivo, iv, 10 mg/kg",27.32 ± 2.2 g
same,body weight/g Without tumor,"[1]; mouse, in vivo, iv, 10 mg/kg",25.06 ± 2.09 g
"O=P1(N(CCCl)CCCl)NCCCO1 (centres unmarked) [CTX, cyclophosphamide, reference compound]",Inhibition rate (%),mice sarcoma S180; [16],48.6%
same,Tumor weight,mice sarcoma S180; [16],1.24 ± 0.50 g
same,body weight/g Without tumor,[1]; [16],23.94 ± 2.60 g
same,body weight/g After ad.,"[1]; S180 mice, I.V. tail vein, 25 mg/kg, after administration",25.44 ± 2.92 g
same,body weight/g Before ad.,"[1]; S180 mice, I.V. tail vein, 25 mg/kg, before administration",22.64 ± 1.28 g

# From US20110038952A1, “GAMBOGIC ACID GLYCOSIDE DERIVATIVES AND ANALOGS, THEIR PREPARATION METHODS AND APPLICATIONS” (priority 2007, published 2011)
